Laboratory results published in US20250332112A1, “IONIZABLE CATIONIC LIPIDS FOR LIPID NANOPARTICLES” (GENEVANT SCIENCES GMBH, priority 2022, published 2025).

Tests used:
Assay type in all cases: in vivo
[1] = Lipid clearance from liver over time after EGFP mRNA LNP (LC-MS); details: IV 0.5 mg/kg EGFP mRNA LNP, female BALB/c mice (n = 4)
Experimental: Liver tissues were treated with PBS and homogenized with a FastPrep machine, 3 cycles of 5 m/s×15 s. Homogenates from the PBS-treated control animals was pooled and used for standard curve preparation. Samples were extracted into a deep well plate with 250 μL of an internal suitability standard. Plates were centrifuged for 15 min at 4° C. and 2000 rpm. Analysis was performed using an Agilent 6520 QTOF coupled to an Agilent 1290 UHPLC, using reverse-phase LC separation. Quantitation of the ionizable lipid was by MS/MS against a calibration curve spiked into appropriately matched blank matrix. Calibration used a similar class of synthetic lipid as internal standard.
At various timepoints post-dose, lipid levels were assessed in the liver. Some novel ionizable lipids reported more rapid clearance rates compared to the benchmark (Table 33).

[2] = system: luciferase activity in the liver; experiment: Luciferase activity in liver after intravenous luciferase mRNA LNP; details: 0.5 mg/kg IV, 6 h post-IV administration, BALB/c mice (n = 4)
[3] = system: EGFP expression in the liver; experiment: Dose response of EGFP mRNA LNP, EGFP expression in liver; details: 24 h, female BALB/c mice (n = 4)
Experimental: At 24 h post-dose, the novel lipid formulations reported dose-dependent increases in EGFP expression in the liver (Table 32).

[4] = Parent ionizable lipid remaining in liver at 6 h after luciferase mRNA LNP (LC-MS); details: 6 h after IV 0.5 mg/kg Luciferase mRNA LNP

SMILES: CCCCC/C=C\CCCC(CCC/C=C\CCCCC)C(CCC/C=C\CCCCC)OC(=O)CCCCN(C)C (stereo not shown) [Compound 13-B43, reference compound]
- Parent ionizable lipid remaining in liver, Average ([1]; 0.25 h post-dose): 29.8 nmol/g liver
- Parent ionizable lipid remaining in liver, Average ([1]; 1 h post-dose): 31.2 nmol/g liver
- Parent ionizable lipid remaining in liver, Average ([1]; 3 h post-dose): 40.2 nmol/g liver
- Parent ionizable lipid remaining in liver, Average ([1]; 6 h post-dose): 45.2 nmol/g liver
- Parent ionizable lipid remaining in liver, Average ([1]; 24 h post-dose): 26.4 nmol/g liver
- Parent ionizable lipid remaining in liver, Average ([1]; 168 h post-dose): 25.6 nmol/g liver
- Luc Activity ([2]; Table 8): 5.94E+07 pg/g liver
- Luc Activity ([2]; Table 9): 7.29E+07 pg/g liver
- Luc Activity ([2]; Table 10): 7.04E+07 pg/g liver
- Luc Activity ([2]; Table 11): 6.86E+07 pg/g liver
- Luc Activity ([2]; Table 12): 7.83E+07 pg/g liver
- Luc Activity ([2]; Table 13): 7.60E+07 pg/g liver
- Luc Activity ([2]; Table 14): 6.02E+07 pg/g liver
- EGFP expression ([3]; 0.3 mg/kg IV): 3.65e+07 pg EGFP/g liver
- EGFP expression ([3]; 1 mg/kg IV): 1.88e+08 pg EGFP/g liver
- EGFP expression ([3]; 3 mg/kg IV): 4.4e+08 pg EGFP/g liver
- Parent ionizable lipid remaining in liver, Average ([4]; Table 16, female BALB/c mice (n = 4)): 22.64 nmol/g liver
- Parent ionizable lipid remaining in liver, Average ([4]; Table 17, female mice (n = 4)): 43.87 nmol/g liver
- Parent ionizable lipid remaining in liver, Average ([4]; Table 18, female BALB/c mice (n = 4)): 63.32 nmol/g liver
